The values that follow come from ChEMBL document CHEMBL1781994, “Estrogenic activity of chemical constituents from Tephrosia candida” (J Nat Prod, 2011).

Each structure is given as a SMILES string.

The target of experiment [1] is T1, Estrogen receptor (Homo sapiens, UniProt P03372).
T1 sequence (P03372 whole entry): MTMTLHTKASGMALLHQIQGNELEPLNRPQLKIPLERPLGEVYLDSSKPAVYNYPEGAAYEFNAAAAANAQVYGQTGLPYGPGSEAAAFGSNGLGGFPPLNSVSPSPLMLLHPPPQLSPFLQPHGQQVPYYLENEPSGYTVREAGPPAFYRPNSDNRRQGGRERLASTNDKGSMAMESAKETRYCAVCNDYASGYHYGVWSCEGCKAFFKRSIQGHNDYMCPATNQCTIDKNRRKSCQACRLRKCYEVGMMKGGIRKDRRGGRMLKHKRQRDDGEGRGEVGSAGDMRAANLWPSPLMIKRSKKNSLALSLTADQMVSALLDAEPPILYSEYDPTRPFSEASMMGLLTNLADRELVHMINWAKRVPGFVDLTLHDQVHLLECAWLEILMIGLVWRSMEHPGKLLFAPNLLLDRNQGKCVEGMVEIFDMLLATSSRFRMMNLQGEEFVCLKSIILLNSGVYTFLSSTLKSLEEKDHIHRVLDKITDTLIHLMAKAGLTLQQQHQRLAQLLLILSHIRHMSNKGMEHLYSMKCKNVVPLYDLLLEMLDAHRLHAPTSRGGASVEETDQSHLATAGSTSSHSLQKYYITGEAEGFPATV
Description: Inhibition of fluorescence-labeled 17beta-estradiol binding to ERalpha receptor after 2 hrs by fluorometric analysis

Experiment [2] has as its target T2, Estrogen receptor (Homo sapiens) (UniProt P03372).
T2 sequence (whole entry): T1 sequence (P03372 whole entry)
The experiment is described as follows: Inhibition of fluorescence-labeled 17beta-estradiol binding to ERalpha receptor at 5 mM after 2 hrs by fluorometric analysis.

In the case of `C=C1CC[C@@H](O)[C@]2(C)CC[C@@](O)(C(C)C)[C@H](O)[C@@H]12`, inhibition in experiment [1] was half-maximal at 2800 µM (IC50). For the same compound, the inhibition (as a rule, the percentage by which the read-out fell short of the control) in experiment [2] was determined as 67.3%.

As for `COc1ccc2c(c1)OC[C@]1(O)c3cc4c(cc3O[C@H]21)OCO4`, in experiment [1], the IC50 (commonly the concentration needed to halve the response being measured) is above 5000 µM. In experiment [2], this compound yielded an inhibition of 36.2%.

As to `COc1cc(O)c(/C=C\C(C)(C)O)c(O)c1C(=O)/C=C/c1ccc(O)cc1` [CANDIDACHALCONE], in experiment [1], half-maximal inhibition (IC50) was put at 80 µM. Besides, the inhibition in experiment [2] amounted to 95.1%.

`COc1cc(O)c(/C=C\C(C)(C)O)c2c1C(=O)C[C@@H](c1ccccc1)O2` [TEPHROCANDIDIN A] yielded an IC50 in experiment [1] of 3500 µM. This compound showed an inhibition in experiment [2] of 70.1%.

In experiment [1], `COc1cc(O)c(/C=C\C(C)(C)O)c2c1C(=O)CC(c1ccc(O)cc1)O2` (stereo not given) [TEPHROCANDIDIN B] registered an IC50 of 1000 µM. In addition, the inhibition in experiment [2] is 86.2%.
